IC50 and activity data for 9 compounds are collected here from patent publication US11858905B1, “Cathepsin L inhibitors” (priority 2023, dated 2024).

Where two headings read alike, the source gives them in different places.

The target in test [1] is human CatL (Homo sapiens (Human), UniProt P07711). Kind of test: Human Cathepsin L (CatL) enzymatic assay. It counts as biochemical. As for the experimental part:
Human Cathepsin L (CatL) Enzymatic Assay
60 μL of the compounds were added to 384-well dilution plate. The compound solution was diluted for 1:3 in succession in DMSO for each column for 10 pts. 0.05 μL diluted compound solution was added in each row to 384 assay plates (Corning 4514) using Echo (LABCYTE 655), each column containing 2 replicates. 5 μL working solution of human CatL enzyme (Abcam #ab81780) was added to 384-well assay plate, centrifuge 1000 rpm for 1 min. The mixture was incubated at […] for 15 min, then add 5 μL working solution of CatL substrate (Genscript #C7360HB140_5) to initiate the reaction (CatL: 0.05 nM, Substrate: 500 nM). Incubate at […] for 30 min. Reading Ex370 nm and Em460 nm fluorescence signals with BMG CLARIO Star Plusaucu. Percent inhibition for each compound was calculated and IC50 (half maximal inhibitory concentration) was fitted from non-linear regression by XLfit 5.5.0.

Test [2] has as its system SARS-CoV-2 PsVs. Kind of test: microbe, parasite or virus in culture. It counts as cell-based. The settings on record: Severe acute respiratory syndrome coronavirus 2, Vero C1008, 24 h; for activity at 0.5 µM: read-out: % Infection rate at 500 nM; for activity at 5 µM: read-out: % Infection rate at 5 uM.
[3] abbreviates: CatL 0.05 nM, substrate 500 nM, pH 5.5, read-out: Enzymatic inhibition IC50.
Setting [4] is: summary of Table 2, read-out: IC50 for inhibiting CatL.

Sequence of human CatL (P07711 whole entry, looked up): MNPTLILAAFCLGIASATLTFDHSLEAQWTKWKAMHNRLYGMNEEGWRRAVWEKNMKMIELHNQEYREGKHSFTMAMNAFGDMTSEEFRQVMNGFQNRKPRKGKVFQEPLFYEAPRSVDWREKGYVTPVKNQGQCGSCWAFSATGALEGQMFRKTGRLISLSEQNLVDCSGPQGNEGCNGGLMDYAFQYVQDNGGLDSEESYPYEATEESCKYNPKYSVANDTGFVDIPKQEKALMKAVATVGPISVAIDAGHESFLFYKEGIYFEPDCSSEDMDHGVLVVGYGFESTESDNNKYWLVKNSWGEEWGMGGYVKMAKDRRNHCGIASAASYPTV

Consider `N#CC1(NC(=O)[C@H](Cc2nc3ccccc3o2)NC(=O)c2cn(C3CC3)nc2C(F)F)CC1` [Compound 19, (S)—N-(3-(benzo[d]oxazol-2-yl)-1-((1-cyanocyclopropyl)amino)-1-oxopropan-2-yl)-1-cyclopropyl-3-(difluoromethyl)-1 H-pyrazole-4-carboxamide], for which the IC50 (as a rule, the midpoint of a concentration-inhibition curve) in test [1] (setting [3]) was found to be 0.0446 µM. Also, in test [2], the activity at 0.5 µM amounted to 101% and the activity at 5 µM is 77.3%.
The like results for `CC(C)(C)c1cc(C(=O)N[C@@H](Cc2nc3ccc(Br)cc3o2)C(=O)NC2(C#N)CC2)n(C2CC2)n1` [Compound 33, (S)—N-(3-(6-bromobenzo[d]oxazol-2-yl)-1-((1-cyanocyclopropyl)amino)-1-oxopropan-2-yl)-3-(tert-butyl)-1-cyclopropyl-1H-pyrazole-5-carboxamide] were, in that order, 0.0029 µM, 39% and 5.9%.
The matching figures for `N#CC1(NC(=O)[C@H](Cc2nc3ccc(F)cc3o2)NC(=O)c2cccc(Cl)c2)CC1` [Compound 4, (S)-3-chloro-N-(1-((1-cyanocyclopropyl)amino)-3-(6-fluorobenzo[d]oxazol-2-yl)-1-oxopropan-2-yl)benzamide]: 0.0349 µM, 81% and 51%.
As for `N#CC1(NC(=O)[C@H](Cc2nc3cccc(Br)c3o2)NC(=O)c2cccc(Cl)c2)CC1` [Compound 3, (S)—N-(3-(7-bromobenzo[d]oxazol-2-yl)-1-((1-cyanocyclopropyl)amino)-1-oxopropan-2-yl)-3-chlorobenzamide], in test [1] (setting [3]), the IC50 worked out at 0.0059 µM. The IC50 in test [1] (setting [4]) is less than 0.01 µM. In test [2], the activity at 0.5 µM worked out at 65% and the activity at 5 µM worked out at 10%.
Consider `Cc1cccc(-c2ccc3nc(C[C@H](NC(=O)c4cc(C5(C)CC5)nn4C4CC4)C(=O)NC4(C#N)CC4)oc3c2)n1` [Compound 44, (S)—N-(1-((1-cyanocyclopropyl)amino)-3-(6-(6-methylpyridin-2-yl)benzo[d]oxazol-2-yl)-1-oxopropan-2-yl)-1-cyclopropyl-3-(1-methylcyclopropyl)-1H-pyrazole-5-carboxamide], for which the IC50 in test [1] (setting [3]) was 0.0165 µM; in test [1] (setting [4]), less than 0.05 µM. The activity at 0.5 µM in test [2] turned out to be 82%. Also, in test [2], the activity at 5 µM was found to be 55.5%.
As to `Cc1nn(C2CC2)cc1C(=O)N[C@@H](Cc1nc2ccccc2o1)C(=O)NC1(C#N)CC1` [Compound 16, (S)—N-(3-(benzo[d]oxazol-2-yl)-1-((1-cyanocyclopropyl)amino)-1-oxopropan-2-yl)-1-cyclopropyl-3-methyl-1H-pyrazole-4-carboxamide], the IC50 in test [1] (setting [3]) amounted to 0.139 µM.
`Cc1cc(-c2ccc3nc(C[C@H](NS(=O)(=O)c4cccc(Br)c4)C(=O)NCC#N)oc3c2)ccn1` [Compound 36, (S)-2-((3-bromophenyl)sulfonamido)-N-(cyanomethyl)-3-(6-(2-methylpyridin-4-yl)benzo[d]oxazol-2-yl)propanamide]: in test [1] (setting [3]), the half-inhibitory concentration (IC50) was determined as 0.0793 µM. Also, in test [2], the activity at 0.5 µM was 110% and the activity at 5 µM was 125%.
`Cc1nn(C2CC2)cc1C(=O)N[C@@H](Cc1nc2cc(F)c(F)cc2o1)C(=O)NC1(C#N)CC1` [Compound 17, (S)—N-(1-((1-cyanocyclopropyl)amino)-3-(5,6-difluorobenzo[d]oxazol-2-yl)-1-oxopropan-2-yl)-1-cyclopropyl-3-methyl-1H-pyrazole-4-carboxamide]: in test [1] (setting [3]), the IC50 was found to be 0.201 µM.
The same measure, in the same setting: the value for `N#CC1(NC(=O)[C@H](Cc2nc3cccc(C(F)(F)F)c3o2)NC(=O)c2cccc(Cl)c2)CC1` [Compound 12, (S)-3-chloro-N-(1-((1-cyanocyclopropyl)amino)-1-oxo-3-(7-(trifluoromethyl)benzo[d]oxazol-2-yl)propan-2-yl)benzamide] was 0.235 µM.
